Laboratory results taken from patent publication US20250152585A1, “PHARMACEUTICAL COMPOUND” (Duke Street Bio Limited, priority 2022, published 2025).
Read-outs that look alike come from different tables or passages of the source.

What was measured:
[1] = target: T1, N-terminally FLAG-tagged PARP2 (amino acids 1-583) (Homo sapiens, UniProt Q9UGN5); experiment: PARP2 probe displacement HTRF assay; type: binding; conditions: binned Kd
T1 construct: N-terminally FLAG-tagged PARP2 (amino acids 1-583)
Experimental: Data analysis was performed identical as for PARP1.

[2] = target: T2, full length N-terminally FLAG-tagged PARP1 (Homo sapiens, UniProt P09874); experiment: PARP1 probe displacement HTRF assay; conditions: for Selectivity: PARP1 over PARP2, ratio Kd (PARP2)/Kd (PARP1); for Kd: binned Kd
[3] = target: T2, full length N-terminally FLAG-tagged PARP1; experiment: PARP1 biochemical DELFIA assay (auto-PARylation); set-up: recombinant full length human N-terminally FLAG-tagged PARP1
[4] = read-out: PARP1 HTRF, probe displacement HTRF
[5] = binned IC50, biochemical auto-PARylation assay
[6] = read-out: PARP1 HTRF, PARP1 probe displacement HTRF
[7] = binned IC50, PARP1 biochemical DELFIA assay
[8] = PARP1 HTRF, PARP1 probe displacement HTRF

T1 sequence (Q9UGN5 whole entry, the tested form may be a part): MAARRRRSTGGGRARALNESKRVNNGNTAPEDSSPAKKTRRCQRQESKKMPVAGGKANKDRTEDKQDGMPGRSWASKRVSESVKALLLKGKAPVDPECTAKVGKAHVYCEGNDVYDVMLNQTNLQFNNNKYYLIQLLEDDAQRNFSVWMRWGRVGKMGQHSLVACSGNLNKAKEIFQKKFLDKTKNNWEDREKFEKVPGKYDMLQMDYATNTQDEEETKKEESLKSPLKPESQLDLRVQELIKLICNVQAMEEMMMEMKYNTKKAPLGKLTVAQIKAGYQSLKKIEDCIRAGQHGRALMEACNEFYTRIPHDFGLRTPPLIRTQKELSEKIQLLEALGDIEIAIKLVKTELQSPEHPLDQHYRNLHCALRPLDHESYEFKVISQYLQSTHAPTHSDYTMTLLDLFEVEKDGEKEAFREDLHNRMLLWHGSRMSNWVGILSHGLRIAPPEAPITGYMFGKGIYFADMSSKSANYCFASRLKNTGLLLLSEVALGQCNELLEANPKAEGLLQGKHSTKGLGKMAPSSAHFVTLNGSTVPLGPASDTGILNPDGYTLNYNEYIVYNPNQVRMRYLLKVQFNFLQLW
T2 sequence (P09874 whole entry): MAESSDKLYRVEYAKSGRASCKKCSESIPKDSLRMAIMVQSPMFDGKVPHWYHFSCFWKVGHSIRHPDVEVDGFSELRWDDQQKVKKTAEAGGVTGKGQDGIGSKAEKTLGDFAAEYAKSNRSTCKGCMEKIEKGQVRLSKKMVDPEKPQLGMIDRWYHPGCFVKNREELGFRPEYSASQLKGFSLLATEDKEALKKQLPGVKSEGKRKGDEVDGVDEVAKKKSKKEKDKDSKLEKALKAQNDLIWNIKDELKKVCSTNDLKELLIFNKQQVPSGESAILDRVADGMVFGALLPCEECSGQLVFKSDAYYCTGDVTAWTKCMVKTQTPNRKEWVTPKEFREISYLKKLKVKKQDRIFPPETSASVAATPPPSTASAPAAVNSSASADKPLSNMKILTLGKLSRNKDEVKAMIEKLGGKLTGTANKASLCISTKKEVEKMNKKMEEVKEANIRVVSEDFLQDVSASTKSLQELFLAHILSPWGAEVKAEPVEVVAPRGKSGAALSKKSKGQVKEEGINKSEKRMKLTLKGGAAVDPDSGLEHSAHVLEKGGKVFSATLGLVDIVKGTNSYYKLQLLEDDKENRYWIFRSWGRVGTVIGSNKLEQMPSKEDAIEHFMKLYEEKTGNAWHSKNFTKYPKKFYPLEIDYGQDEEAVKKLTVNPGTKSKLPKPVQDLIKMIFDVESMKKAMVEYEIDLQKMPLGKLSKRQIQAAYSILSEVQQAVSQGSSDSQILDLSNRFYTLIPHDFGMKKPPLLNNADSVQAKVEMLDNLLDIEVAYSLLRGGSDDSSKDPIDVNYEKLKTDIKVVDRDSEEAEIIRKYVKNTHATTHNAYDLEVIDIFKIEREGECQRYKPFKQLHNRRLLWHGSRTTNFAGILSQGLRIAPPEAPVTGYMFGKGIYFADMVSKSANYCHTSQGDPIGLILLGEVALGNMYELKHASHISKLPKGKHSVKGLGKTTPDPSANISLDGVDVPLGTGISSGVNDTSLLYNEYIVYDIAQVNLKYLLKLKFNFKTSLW

SMILES | Kd ([1]; probe displacement HTRF) [nM] | Kd [2, 4] [nM] | IC50 [3, 5] [nM] | Kd ([2]; PARP1 HTRF, probe displacement HTRF) [nM] | Kd ([1]; PARP2 probe displacement HTRF) [nM] | Kd [2, 6] [nM] | IC50 [3, 7] [nM] | Kd [2, 8] [nM] | Selectivity ([2]; probe displacement HTRF)
CNC(=O)c1ccc(N2CCC(N3CCC(c4nc5c(C(F)(F)F)cn(C)c5c(=O)[nH]4)C3)CC2)cn1 (racemic) [Compound 288rac] | 1000 to 10000 | 10 to 100 | 10 to 100 |  |  |  |  |  | +++ (+++ indicate a value of at least 100)
CNC(=O)c1ccc(N2CCC(N3CCC(c4nc5c(c(=O)[nH]4)CN(C)C5)C3)CC2)cn1 (racemic) [Compound 294rac] | > 10000 | 100 to 1000 | 100 to 1000 |  |  |  |  |  | − (− indicates a value of less than 10)
CNC(=O)c1cc(N2CCC(N3CCC(c4cc5ccccc5c(=O)[nH]4)C3)CC2)cs1 (racemic) [Compound 296rac] | 100 to 1000 | < 10 | < 10 |  |  |  |  |  | + (+ indicates a value of 10 to less than 50)
O=c1[nH]c(C2CCN(C3CCN(c4nc5ccccc5[nH]4)CC3)C2)cc2ccccc12 (racemic) [Compound 297rac] | 100 to 1000 | 10 to 100 | 10 to 100 |  |  |  |  |  | − (− indicates a value of less than 10)
O=c1[nH]c(C2CCN(C3CCN(c4ccc(C5=NCCN5)cc4)CC3)C2)nc2ccccc12 (racemic) [Compound 307rac] | 100 to 1000 | 10 to 100 | 10 to 100 |  |  |  |  |  | − (− indicates a value of less than 10)
CNC(=O)c1cnc(N2CCC(N3CCC(c4nc5ccccc5c(=O)[nH]4)C3)CC2)nc1 (racemic) [Compound 318rac] | 100 to 1000 | 10 to 100 | 10 to 100 |  |  |  |  |  | + (+ indicates a value of 10 to less than 50)
CNC(=O)c1ccc(N2CCC(N3CCC(c4cc5ccccc5c(=O)[nH]4)C3)CC2)s1 (racemic) [Compound 319rac] | 1000 to 10000 | 1000 to 10000 | 1000 to 10000 |  |  |  |  |  | − (− indicates a value of less than 10)
CNC(=O)c1cnc(N2CCC(N3CCC(c4cc5ccccc5c(=O)[nH]4)C3)CC2)s1 (racemic) [Compound 320rac] | 1000 to 10000 | 100 to 1000 | 100 to 1000 |  |  |  |  |  | − (− indicates a value of less than 10)
Cc1cnc(-c2ccc(N3CCC(N4CCC(c5nc6ccccc6c(=O)[nH]5)C4)CC3)cn2)n1C (racemic) [Compound 321rac] | 100 to 1000 | 100 to 1000 | 100 to 1000 |  |  |  |  |  | − (− indicates a value of less than 10)
CNC(=O)c1ccc(N2CCC(N3CCC(c4cc5c(c(=O)[nH]4)CCC(=O)N5C)C3)CC2)cn1 (racemic) [Compound 325rac] | 1000 to 10000 | < 10 | < 10 |  |  |  |  |  | +++ (+++ indicate a value of at least 100)
CNC(=O)c1ccc(N2CCC(N3CCC(c4cc5cc(OC)ccc5c(=O)[nH]4)C3)CC2)cn1 (racemic) [Compound 334rac] | 1000 to 10000 | 10 to 100 | < 10 |  |  |  |  |  | ++ (++ indicates a value of 50 to less than 100)
CNC(=O)c1ccc(N2CCC(N3CCC(c4nc5ncncc5c(=O)[nH]4)C3)CC2)cn1 (racemic) [Compound 335rac] | > 10000 | 100 to 1000 | 100 to 1000 |  |  |  |  |  | + (+ indicates a value of 10 to less than 50)
CNC(=O)c1ccc(N2CCC(N3CCC(c4cc5c(c(=O)[nH]4)CCCC5)C3)CC2)cn1 (racemic) [Compound 336rac] | 10 to 100 | < 10 | < 10 |  |  |  |  |  | ++ (++ indicates a value of 50 to less than 100)
CNC(=O)c1ccc(N2CCC(N3CC(c4cc5cccc(F)c5c(=O)[nH]4)CC3=O)CC2)cn1 (racemic) [Compound 362rac] | 1000 to 10000 | < 10 | < 10 |  |  |  |  |  | +++ (+++ indicate a value of at least 100)
CNC(=O)c1ccc(N2CCC(N3CCC(c4ccc(CC(F)F)c(=O)[nH]4)C3)CC2)cn1 (racemic) [Compound 391rac] | 1000 to 10000 | < 10 | < 10 |  |  |  |  |  | +++ (+++ indicate a value of at least 100)
O=c1[nH]c(C2CCN(C3CCC(F)(F)CC3)C2)nc2ccccc12 (single isomer, unassigned) [Compound 4a] |  |  |  |  | 100 to 1000 | 100 to 1000 | 100 to 1000 |  | − (− indicates a value of less than 10)
CNC(=O)c1ccc(N2CCC(N3CCCC(c4nc5ccccc5c(=O)[nH]4)C3)CC2)cn1 (single isomer, unassigned) [Compound 6a, N-methyl-5-(3-(4-oxo-3,4-dihydroquinazolin-2-yl)-[1,4′-bipiperidin]-1′-yl)picolinamide] |  |  |  |  | > 10000 |  | < 10 | < 10 | +++ (+++ indicate a value of at least 100)
CNC(=O)c1ccc(N2CCC(N3CCCC(c4nc5ccccc5c(=O)[nH]4)C3)CC2)cn1 (single isomer, unassigned) [Compound 6b, N-methyl-5-(3-(4-oxo-3,4-dihydroquinazolin-2-yl)-[1,4′-bipiperidin]-1′-yl)picolinamide] |  |  |  |  | 1000 to 10000 |  | 100 to 1000 | 100 to 1000 | + (+ indicates a value of 10 to less than 50)
CNC(=O)c1ccc(OCCCN2CCCC(c3nc4ccccc4c(=O)[nH]3)C2)cn1 (single isomer, unassigned) [Compound 7a] |  |  |  |  | 100 to 1000 | < 10 | 10 to 100 |  | +++ (+++ indicate a value of at least 100)
CNC(=O)c1ccc(N2CCC(CN3CCCC(c4nc5ccccc5c(=O)[nH]4)C3)CC2)cn1 (single isomer, unassigned) [Compound 9a] |  |  |  |  | 1000 to 10000 | 10 to 100 | 10 to 100 |  | +++ (+++ indicate a value of at least 100)
CNC(=O)c1ccc(N2CCC(CN3CCCC(c4nc5ccccc5c(=O)[nH]4)C3)CC2)cn1 (single isomer, unassigned) [Compound 9b] |  |  |  |  | 100 to 1000 | 10 to 100 | 10 to 100 |  | − (− indicates a value of less than 10)
CNC(=O)c1ccc(N2CCC(N3CCC(c4nc5ccccc5c(=O)[nH]4)C3)CC2)cn1 (single isomer, unassigned) [Compound 10a, N-methyl-5-(4-(3-(4-oxo-3,4-dihydroquinazolin-2-yl)pyrrolidin-1-yl)piperidin-1-yl)picolinamide] |  |  |  |  | 100 to 1000 |  | 10 to 100 | < 10 | +++ (+++ indicate a value of at least 100)

Continued, in another order:

Kd ([1]; probe displacement HTRF) [nM] | Kd [2, 4] [nM] | IC50 [3, 5] [nM] | Kd ([2]; PARP1 HTRF, probe displacement HTRF) [nM] | Kd ([1]; PARP2 probe displacement HTRF) [nM] | Kd [2, 6] [nM] | IC50 [3, 7] [nM] | Kd [2, 8] [nM] | SMILES | Selectivity ([2]; probe displacement HTRF)
> 10000 | 100 to 1000 | 100 to 1000 |  |  |  |  |  | CNC(=O)c1ccc(N2CCC(N3CCC(c4cc5c(C(F)(F)F)nn(C)c5c(=O)[nH]4)C3)CC2)cn1 (racemic) [Compound 392rac] | + (+ indicates a value of 10 to less than 50)
1000 to 10000 |  | < 10 | < 10 |  |  |  |  | CNC(=O)c1ccc(N2CCC(N3CC(c4cc5cccc(F)c5c(=O)[nH]4)C(F)(F)C3)CC2)cn1 (racemic) [Compound 393rac, 5-(4-(3,3-difluoro-4-(8-fluoro-1-oxo-1,2-dihydroisoquinolin-3-yl)pyrrolidin-1-yl)piperidin-1-yl)-N-methylpicolinamide] | +++ (+++ indicate a value of at least 100)
100 to 1000 | < 10 | < 10 |  |  |  |  |  | CNC(=O)c1ncc(N2CCC(N3CCC(c4cc5ccc(F)cc5c(=O)[nH]4)C3)CC2)c(Cl)n1 (racemic) [Compound 400rac] | +++ (+++ indicate a value of at least 100)
10 to 100 | < 10 | < 10 |  |  |  |  |  | CNC(=O)c1ccc(N2CCC(N3CCC(c4[nH]c(=O)c5cc(F)ccc5c4F)C3)CC2)c(F)n1 (racemic) [Compound 403rac] | +++ (+++ indicate a value of at least 100)
100 to 1000 | < 10 | < 10 |  |  |  |  |  | CNC(=O)c1ccc(N2CCC(N3CCC(c4cc5c(c(=O)[nH]4)COCC5)C3)CC2)cn1 (racemic) [Compound 405rac] | +++ (+++ indicate a value of at least 100)
> 10000 | < 10 | < 10 |  |  |  |  |  | CCc1ccc(C2CC(=O)N(C3CCN(c4ccc(C(=O)NC)nc4)CC3)C2)[nH]c1=O (racemic) [Compound 406rac] | +++ (+++ indicate a value of at least 100)
> 10000 | 100 to 1000 | 100 to 1000 |  |  |  |  |  | CNC1(c2ccc(N3CCC(N4CCC(c5nc6ccccc6c(=O)[nH]5)C4)CC3)cn2)CC1 (racemic) [Compound 412rac] | + (+ indicates a value of 10 to less than 50)
100 to 1000 | < 10 | < 10 |  |  |  |  |  | O=c1[nH]c2ccc(N3CCC(N4CCC(c5cc6ccccc6c(=O)[nH]5)C4)CC3)cc2[nH]1 (racemic) [Compound 413rac] | +++ (+++ indicate a value of at least 100)
100 to 1000 | 10 to 100 | 10 to 100 |  |  |  |  |  | CS(=O)(=O)NC(=O)c1ccc(N2CCC(N3CCC(c4cc5ccccc5c(=O)[nH]4)C3)CC2)cn1 (racemic) [Compound 414rac] | ++ (++ indicates a value of 50 to less than 100)
> 10000 | < 10 | 10 to 100 |  |  |  |  |  | CCc1ccc(C2(F)CCN(C3CCN(c4ccc(C(=O)NC)nc4F)CC3)C2)[nH]c1=O (racemic) [Compound 415rac] | +++ (+++ indicate a value of at least 100)
